Reference: patent publication US8921267B2, “Safening 6-(trisubstituted phenyl)-4-amino-2-pyridinecarboxylate herbicide injury on cereal crops” (Dow AgroSciences LLC, priority 2008, dated 2014)

How the values were obtained:
Type in all cases: in vivo
[1] = test system: corn poppy (Papaver rhoeas L; PAPRH); assay: Postemergence herbicidal activity, greenhouse, visual injury: corn poppy; details: for PAPRH Ob: applied alone
Method: (§1) Evaluation of Postemergence Herbicidal Safening in Cereal Crops
(§2) Seeds of the desired test plant species were planted in Sun Gro MetroMix® 306 planting mixture, which typically has a pH of 6.0 to 6.8 and an organic matter content of about 30 percent, in plastic pots with a surface area of 103.2 square centimeters (cm^2). When required to ensure good germination and healthy plants, a fungicide treatment and/or other chemical or physical treatment was applied. The plants were grown for 7-36 days (d) in a greenhouse with an approximate 14-hour (h) photoperiod which was maintained at about 18° C. during the day and 17° C. during the night. Nutrients and water were added on a regular basis and supplemental lighting was provided with overhead metal halide 1000-Watt lamps as necessary. The plants were employed for testing when they reached the second or third true leaf stage.
(§3) Weighed amounts of esters (methyl) or salts (TEA [triethylammonium], K [potassium]) of 4-amino-3-chloro-6-(4-chloro-2-fluoro-3-methoxyphenyl)pyridine-2-carboxylic acid (Compound 1) were dissolved in a volume of 97:3 volume/volume (v/v) acetone/dimethylsulfoxide (DMSO) to obtain stock solutions. […] The concentrated stock solutions were diluted with an aqueous mixture of 1.5% v/v of Agri-dex crop oil concentrate to provide the appropriate application rates. Compound requirements are based upon a 12 mL application volume at a rate of 187 liters per hectare (L/ha). Stocks solutions of the safeners were prepared following the same procedure. Spray solutions of the safeners and experimental compound mixtures were prepared by adding the stock solutions to the appropriate amount of dilution solution to form a 12 mL spray solution with active ingredients in two-way combinations. Formulated compounds were applied to the plant material with an overhead Mandel track sprayer equipped with 8002E nozzles calibrated to deliver 187 L/ha over an application area of 0.503 square meters (m^2) at a spray height of 18 inches (43 centimeters (cm)) above average plant canopy. Control plants were sprayed in the same manner with the solvent blank.
(§4) The treated plants and control plants were placed in a greenhouse as described above and watered by sub-irrigation to prevent wash-off of the test compounds. After 20-22 d, the condition of the test plants as compared with that of the control plants was determined visually and scored on a scale of 0 to 100 percent where 0 corresponds to no injury and 100 corresponds to complete kill.
(§5) Colby's equation was used to determine the herbicidal effects expected from the mixtures (Colby, S. R. Calculation of the synergistic and antagonistic response of herbicide combinations. Weeds 1967, 15, 20-22.).
(§6) The following equation was used to calculate the expected activity of mixtures containing two active ingredients, A and B: Expected=A+B−(A×B/100)
(§7) A=observed efficacy of active ingredient A at the same concentration as used in the mixture.
(§8) B=observed efficacy of active ingredient B at the same concentration as used in the mixture.

[2] = test system: purple deadnettle (Lamium purpureum L; LAMPU); assay: Postemergence herbicidal activity, greenhouse, visual injury: purple deadnettle; set-up: key: visual injury, 0–100%: 0 = no injury, 100 = complete kill
Method: as §1, §2, §3, §4, §5, §6, §7, §8

[3] = test system: wild pansy (Viola tricolor L; VIOTR); assay: Postemergence herbicidal activity, greenhouse, visual injury: wild pansy; set-up: key: visual injury, 0–100%: 0 = no injury, 100 = complete kill; details: applied alone
Method: as §1, §2, §3, §4, §5, §6, §7, §8

[4] = test system: chickweed (Stellaria media L; STEME); assay: Postemergence herbicidal activity, greenhouse, visual injury: chickweed; set-up: key: visual injury, 0–100%: 0 = no injury, 100 = complete kill; details: applied alone
Method: as §1, §2, §3, §4, §5, §6, §7, §8

[5] = test system: Russian thistle (Salsola iberica L; SASKR); assay: Postemergence herbicidal activity, greenhouse, visual injury: Russian thistle; set-up: key: visual injury, 0–100%: 0 = no injury, 100 = complete kill; details: applied alone
Method: as §1, §2, §3, §4, §5, §6, §7, §8

[6] = test system: wild buckwheat (Polygonum convolvulus L; POLCO); assay: Postemergence herbicidal activity, greenhouse, visual injury: wild buckwheat; details: applied alone
Method: as §1, §2, §3, §4, §5, §6, §7, §8

[7] = test system: cleavers (Galium aparine L; GALAP); assay: Postemergence herbicidal activity, greenhouse, visual injury: cleavers; set-up: key: visual injury, 0–100%: 0 = no injury, 100 = complete kill; details: applied alone
Method: as §1, §2, §3, §4, §5, §6, §7, §8

[8] = test system: bird's-eye speedwell (Veronica persica L; VERPE); assay: Postemergence herbicidal activity, greenhouse, visual injury: bird's-eye speedwell; set-up: key: visual injury, 0–100%: 0 = no injury, 100 = complete kill; details: applied alone
Method: as §1, §2, §3, §4, §5, §6, §7, §8

[9] = test system: wheat (Triticum aestivum L; TRZAS); assay: Postemergence herbicidal safening, greenhouse, visual injury: wheat; details: applied alone
Method: as §1, §2, §3, §4, §5, §6, §7, §8

[10] = test system: barley (Hordeum vulgare L; HORVS); assay: Postemergence herbicidal safening, greenhouse, visual injury: barley; details: applied alone
Method: as §1, §2, §3, §4, §5, §6, §7, §8

## Cc1ccc(NC(=O)NC(C)(C)c2ccccc2)cc1 [Daimuron]
[1]; safener 4.4 g/ha alone
  PAPRH Ob (Observed values): 0
[1]; safener 8.8 g/ha alone
  PAPRH Ob (Observed values): 0
[1]; safener 17.5 g/ha alone
  PAPRH Ob (Observed values): 0
[1]; safener 35 g/ha alone
  PAPRH Ob (Observed values): 0
[2]; safener 4.4 g/ha alone
  LAMPU Ob (Observed values): 0
[2]; safener 8.8 g/ha alone
  LAMPU Ob (Observed values): 0
[2]; safener 17.5 g/ha alone
  LAMPU Ob (Observed values): 0
[2]; safener 35 g/ha alone
  LAMPU Ob (Observed values): 0

## O=C(O)c1nc(C(Cl)(Cl)Cl)n(-c2ccc(Cl)cc2Cl)n1 [Fenchlorazole]
[1]; safener 4.4 g/ha alone
  PAPRH Ob (Observed values): 0
[1]; safener 8.8 g/ha alone
  PAPRH Ob (Observed values): 0
[1]; safener 17.5 g/ha alone
  PAPRH Ob (Observed values): 0
[1]; safener 35 g/ha alone
  PAPRH Ob (Observed values): 0
[2]; safener 4.4 g/ha alone
  LAMPU Ob (Observed values): 0
[2]; safener 8.8 g/ha alone
  LAMPU Ob (Observed values): 0
[2]; safener 17.5 g/ha alone
  LAMPU Ob (Observed values): 0
[2]; safener 35 g/ha alone
  LAMPU Ob (Observed values): 0

## FC(F)(F)C(=NOCC1OCCO1)c1ccc(Cl)cc1 [Fluxofenim]
[3]; 17.5 g/ha
  VIOTR Ob: 0
[3]; 35 g/ha
  VIOTR Ob: 0
[3]; 70 g/ha
  VIOTR Ob: 0
[3]; 140 g/ha
  VIOTR Ob: 0
[4]; 17.5 g/ha
  STEME Ob: 0
[4]; 35 g/ha
  STEME Ob: 0
[4]; 70 g/ha
  STEME Ob: 0
[4]; 140 g/ha
  STEME Ob: 0
[5]; 17.5 g/ha
  SASKR Ob: 0
[5]; 35 g/ha
  SASKR Ob: 0
[5]; 70 g/ha
  SASKR Ob: 0
[5]; 140 g/ha
  SASKR Ob: 0
[6]; 17.5 g/ha
  POLCO Ob: 0
[6]; 35 g/ha
  POLCO Ob: 0
[6]; 70 g/ha
  POLCO Ob: 0
[6]; 140 g/ha
  POLCO Ob: 0
[7]; 17.5 g/ha
  GALAP Ob: 0
[7]; 35 g/ha
  GALAP Ob: 0
[7]; 70 g/ha
  GALAP Ob: 0
[7]; 140 g/ha
  GALAP Ob: 0
[1]; 17.5 g/ha
  PAPRH Ob: 0
[1]; 35 g/ha
  PAPRH Ob: 0
[1]; 70 g/ha
  PAPRH Ob: 0
[1]; 140 g/ha
  PAPRH Ob: 0
[8]; 17.5 g/ha
  VERPE Ob: 0
[8]; 35 g/ha
  VERPE Ob: 0
[8]; 70 g/ha
  VERPE Ob: 0
[8]; 140 g/ha
  VERPE Ob: 0
[9]; 17.5 g/ha
  TRZAS Ob: 0%
[9]; 35 g/ha
  TRZAS Ob: 0%
[9]; 70 g/ha
  TRZAS Ob: 0%
[9]; 140 g/ha
  TRZAS Ob: 0%
[10]; 17.5 g/ha
  HORVS Ob: 0%
[10]; 35 g/ha
  HORVS Ob: 0%
[10]; 70 g/ha
  HORVS Ob: 0%
[10]; 140 g/ha
  HORVS Ob: 0%

## O=C1OC(=O)c2cccc3cccc1c23 [Naphthalic anhydride]
[3]; 17.5 g/ha
  VIOTR Ob: 0
[3]; 35 g/ha
  VIOTR Ob: 0
[3]; 70 g/ha
  VIOTR Ob: 0
[3]; 140 g/ha
  VIOTR Ob: 0
[4]; 17.5 g/ha
  STEME Ob: 0
[4]; 35 g/ha
  STEME Ob: 0
[4]; 70 g/ha
  STEME Ob: 0
[4]; 140 g/ha
  STEME Ob: 0
[5]; 17.5 g/ha
  SASKR Ob: 0
[5]; 35 g/ha
  SASKR Ob: 0
[5]; 70 g/ha
  SASKR Ob: 0
[5]; 140 g/ha
  SASKR Ob: 0
[6]; 17.5 g/ha
  POLCO Ob: 0
[6]; 35 g/ha
  POLCO Ob: 0
[6]; 70 g/ha
  POLCO Ob: 0
[6]; 140 g/ha
  POLCO Ob: 0
[7]; 17.5 g/ha
  GALAP Ob: 0
[7]; 35 g/ha
  GALAP Ob: 0
[7]; 70 g/ha
  GALAP Ob: 0
[7]; 140 g/ha
  GALAP Ob: 0
[1]; 17.5 g/ha
  PAPRH Ob: 0
[1]; 35 g/ha
  PAPRH Ob: 0
[1]; 70 g/ha
  PAPRH Ob: 0
[1]; 140 g/ha
  PAPRH Ob: 0
[8]; 17.5 g/ha
  VERPE Ob: 0
[8]; 35 g/ha
  VERPE Ob: 0
[8]; 70 g/ha
  VERPE Ob: 0
[8]; 140 g/ha
  VERPE Ob: 0
